Test results published in US20180092845A1, “ENZYME-RESPONSIVE NANOPARTICLES” (THE REGENTS OF THE UNIVERSITY OF CALIFORNIA, priority 2015, published 2018).

Legend:
[1] = in vivo; settings: female, nu/nu, mouse, in vivo, iv
Description: (§1) Mouse weight was recorded once daily until all animals in the cohort returned to, or surpassed, their weight on the day of injection. […] Two additional cohorts (6 mice, 3 per group) were treated with 15 mg/kg and 30 mg/kg of clinically formulated paclitaxel (a 6 mg/mL suspension in 1:1 ethanol:Cremophor EL®, diluted with 1×DPBS prior to injection).

[2] = tested on: healthy nu/nu mice; experiment: in vivo; settings: 30 mg/kg IV; listed as clinically formulated paclitaxel
Description: as §1

[3] = tested on: healthy nu/nu mice; settings: suspension in 1:1 Cremophor EL to ethanol; literature; cited from earlier work

## CC(=O)O[C@H]1C(=O)[C@@]2(C)[C@H]([C@H](OC(=O)c3ccccc3)[C@]3(O)C[C@H](OC(=O)[C@H](O)[C@@H](NC(=O)c4ccccc4)c4ccccc4)C(C)=C1C3(C)C)[C@]1(OC(C)=O)CO[C@@H]1C[C@@H]2O [PTX, paclitaxel]
[1]
  LD50: 30 mg/kg
  MTD: 15 mg/kg
[2]
  lethality: 1 out of the 3 animals died within 30 minutes post-injection and also died within an hour of injection
[3]
  MTD in mice previously established: 10 to 30 mg/kg
